Laboratory results from patent US9708368B2, “Linear peptide antibiotics” (priority 2012, dated 2017).
Converted amounts (≈) assume the structure as drawn. Numbered stars: 1 amine (or outer) side, 2 acyl side, 3 side chain; on linkers, the order of the positions; unused ones are H or OH. Square brackets hold non-standard residues; d marks the D form. Peptide text beside a SMILES is read from it. * marks the point of attachment. ξ: configuration not given here. boroAla((+)-pinanediol) = C[C@H](N*)B1O[C@@H]2C[C@@H]3C[C@@H](C3(C)C)[C@]2(C)O1; Biphenylcarbonyl(4'-Bu) = CCCCc1ccc(-c2ccc(C(=O)*)cc2)cc1; X11 = CC[C@H](N*)B1OC2C[C@@H]3C[C@@H](C3(C)C)[C@]2(C)O1; X1 = C[C@H](N*)B1OC2C[C@@H]3C[C@@H](C3(C)C)[C@]2(C)O1; Benzoyl(4-(4-Cl-Ph)) = O=C(c1ccc(-c2ccc(Cl)cc2)cc1)*; ξPro(4S-NH2) = O=C(C1C[C@H](N[*:3])CN1[*:1])[*:2]; X17 = O=C(/C=C/C=C/C12CC3CC(CC(C3)C1)C2)*; Pro(4R-NH2) = N[C@H]1CN[C@H](C(=O)O)C1; X15 = CCCCCCN1CCC(c2ccc(C(=O)*)cc2)CC1; Thr(3ξ) = CC(O)[C@H](N)C(=O)O; 4Amb = NCc1ccc(C(=O)O)cc1; boroAla = C[C@H](N*)B(O)O; Dab = NCC[C@H](N)C(=O)O; Abu = CC[C@H](N)C(=O)O; Dap = NC[C@H](N)C(=O)O; X14 = CCCCc1ccc(*)cc1; ξOrn = NCCCC(N)C(=O)O; βAla = NCCC(=O)O

Legend:
[1] = test system: Escherichia coli strain MC4100 IMP-4213, which harbors an LptD mutation; conditions: Method B; E. coli MC4100 IMP-4213 (LptD mutation); 35° C., 22 hours
Experimental: In vitro antimicrobial activity of each compound was determined by measuring minimal inhibitor concentrations (MICs) using the broth micro-dilution technique as approved by the Clinical and Laboratory Standards Institute (CLSI). […] Bacterial inocula were prepared by scraping cells into 1 mL of testing media (cation adjusted Mueller Hinton Broth supplemented with 0.002% v/v Tween-80) and diluting to a final OD600 nm of 0.01.
Test compounds were prepared in DMSO at a concentration of 10 mg/ml. […] Bacterial inocula were added to the two fold serial dilutions of test compounds to a final density of OD OD600 nm of 0.0005 and incubated stationarily at 35° C. for 22 hours, after which the plates were examined visually.

S. aureus SPase = S. aureus SPase (Staphylococcus aureus, UniProt P0A070); assay: biochemical
[2] = test system: methicillin resistant Staphylococcus aureus (MRSA) strain USA300 (NRS384); conditions: Method B, 35° C., 22 hours
E. coli SPase = E. coli SPase (Escherichia coli, UniProt P00803); assay: Biochemical SPase activity assay (fluorogenic peptide substrate), E. coli enzyme

SMILES	MIC (μg/mL) E. coli [1]	IC50 (S. aureus SPase)	MIC (μg/mL) S. aureus [2]	IC50 (E. coli SPase)
CCCCc1ccc(-c2ccc(C(=O)NCCC(=O)N[C@@H](CCCCN)C(=O)N[C@H](C(=O)N[C@H](C(=O)N[C@@H](CC(N)=O)C(=O)N[C@@H](C)B3OC4C[C@@H]5C[C@@H](C5(C)C)[C@]4(C)O3)C(C)C)[C@@H](C)O)cc2)cc1 (stereo partly drawn) [Compound 212] ({Biphenylcarbonyl(4'-Bu)-βAla}-KTVN-X1)	5 µg/mL (≈ 5.14 µM)	12 nM	0.84 µg/mL (≈ 0.863 µM)	26 nM
CCCCc1ccc(-c2ccc(C(=O)N[C@@H](CCCCN)C(=O)N3CCC[C@H]3C(=O)N[C@@H](C)C(=O)N[C@@H](CC(N)=O)C(=O)N[C@@H](C)B3O[C@@H]4C[C@@H]5C[C@@H](C5(C)C)[C@]4(C)O3)cc2)cc1 [Compound 133] ({Biphenylcarbonyl(4'-Bu)}-KPAN-{boroAla((+)-pinanediol)})	0.79 µg/mL (≈ 0.908 µM)	170 nM	1.4 µg/mL (≈ 1.61 µM)	15 nM
C[C@H](NC(=O)[C@H](CC(N)=O)NC(=O)[C@H](C)NC(=O)[C@@H](NC(=O)[C@H](CCCCN)NC(=O)CCNC(=O)c1ccc(-c2ccc(Cl)cc2)cc1)[C@@H](C)O)B1OC2C[C@@H]3C[C@@H](C3(C)C)[C@]2(C)O1 (stereo partly drawn) [Compound 201] ({Benzoyl(4-(4-Cl-Ph))-βAla}-KTAN-X1)	64 µg/mL (≈ 69.3 µM)	1.9 nM	4.6 µg/mL (≈ 4.98 µM)	8 nM
CCCCc1ccc(-c2ccc(C(=O)NCCC(=O)N[C@@H](CCCCN)C(=O)N[C@H](C(=O)N[C@@H](C)C(=O)N[C@@H](CCCCN)C(=O)N[C@@H](C)B3OC4C[C@@H]5C[C@@H](C5(C)C)[C@]4(C)O3)[C@@H](C)O)cc2)cc1 (stereo partly drawn) [Compound 193] ({Biphenylcarbonyl(4'-Bu)-βAla}-KTAK-X1)	5 µg/mL (≈ 5.21 µM)	3 nM	0.16 µg/mL (≈ 0.167 µM)	15 nM
CCCCc1ccc(-c2ccc(C(=O)N[C@@H](CN)C(=O)N[C@@H](CN)C(=O)N[C@@H](C)C(=O)N[C@@H](CC(C)C)C(=O)N[C@@H](C)B3OC4C[C@@H]5C[C@@H](C5(C)C)[C@]4(C)O3)cc2)cc1 (stereo partly drawn) [Compound 170] ({Biphenylcarbonyl(4'-Bu)}-[Dap][Dap]AL-X1)	0.4 µg/mL (≈ 0.49 µM)	530 nM	2 µg/mL (≈ 2.45 µM)	10 nM
CCCCc1ccc(-c2ccc(C(=O)NCCC(=O)N[C@@H](CCCCN)C(=O)NC(CCCN)C(=O)N[C@@H](C)C(=O)N[C@@H](CC(C)C)C(=O)N[C@@H](C)B3OC4C[C@@H]5C[C@@H](C5(C)C)[C@]4(C)O3)cc2)cc1 (stereo partly drawn) [Compound 217] ({Biphenylcarbonyl(4'-Bu)-βAla}-K[ξOrn]AL-X1)	1.6 µg/mL (≈ 1.67 µM)	14 nM	0.35 µg/mL (≈ 0.366 µM)	15 nM
CCCCc1ccc(-c2ccc(C(=O)N[C@@H](CN)C(=O)N[C@@H](CCC(=O)N[C@H](CC(=O)O)C(=O)O)C(=O)N[C@@H](C)C(=O)N[C@@H](CCCCN)C(=O)N[C@@H](C)B3OC4C[C@@H]5C[C@@H](C5(C)C)[C@]4(C)O3)cc2)cc1 (stereo partly drawn) [Compound 259] ({Biphenylcarbonyl(4'-Bu)}-[Dap]E(dD)AK-X1)	4 µg/mL (≈ 4.04 µM)	32 nM	11 µg/mL (≈ 11.1 µM)	2.6 nM
C[C@H](NC(=O)[C@H](CCCCN)NC(=O)[C@H](C)NC(=O)[C@@H](NC(=O)[C@H](CCN)NC(=O)/C=C/C=C/C12CC3CC(CC(C3)C1)C2)[C@@H](C)O)B1O[C@@H]2C[C@@H]3C[C@@H](C3(C)C)[C@]2(C)O1 [Compound 240] (X17-[Dab]TAK-{boroAla((+)-pinanediol)})	4 µg/mL (≈ 4.77 µM)	88 nM	0.71 µg/mL (≈ 0.847 µM)	28 nM
CCCCc1ccc(-c2ccc(C(=O)N3C[C@@H](N)CC3C(=O)N[C@H](C(=O)N[C@@H](C)C(=O)N[C@@H](CC(N)=O)C(=O)N[C@@H](C)B3OC4C[C@@H]5C[C@@H](C5(C)C)[C@]4(C)O3)[C@@H](C)O)cc2)cc1 (stereo partly drawn) [Compound 139] ({Biphenylcarbonyl(4'-Bu)}-[ξPro(4S-NH2)]TAN-X1)	2 µg/mL (≈ 2.33 µM)	8.5 nM	1 µg/mL (≈ 1.17 µM)	3.4 nM
CCCCc1ccc(NCc2ccc(C(=O)N[C@@H](CCN)C(=O)N[C@H](C(=O)N[C@@H](C)C(=O)N[C@@H](CCCCN)C(=O)N[C@@H](C)B3OC4C[C@@H]5C[C@@H](C5(C)C)[C@]4(C)O3)[C@@H](C)O)cc2)cc1 (stereo partly drawn) [Compound 250] ({X14-4Amb}-[Dab]TAK-X1)	0.71 µg/mL (≈ 0.799 µM)	110 nM	0.35 µg/mL (≈ 0.394 µM)	8.4 nM
CCCCc1ccc(-c2ccc(C(=O)N[C@@H](CN)C(=O)N[C@@H](CCCCN)C(=O)N[C@@H](C)C(=O)N[C@@H](CCCCN)C(=O)N[C@@H](C)B3O[C@@H]4C[C@@H]5C[C@@H](C5(C)C)[C@]4(C)O3)cc2)cc1 [Compound 184] ({Biphenylcarbonyl(4'-Bu)}-[Dap]KAK-{boroAla((+)-pinanediol)})	0.13 µg/mL (≈ 0.149 µM)	300 nM	0.25 µg/mL (≈ 0.286 µM)	5.9 nM
CCCCc1ccc(-c2ccc(C(=O)N[C@@H](CCCCN)C(=O)N[C@@H](C)C(=O)N[C@@H](CC(C)C)C(=O)N[C@@H](C)B(O)O)cc2)cc1 [Compound 191]	16 µg/mL (≈ 25.1 µM)	50000 nM	20 µg/mL (≈ 31.4 µM)	38000 nM
CCCCc1ccc(-c2ccc(C(=O)N[C@@H](CCN)C(=O)N[C@@H](CCN)C(=O)N[C@@H](C)C(=O)N[C@@H](CO)C(=O)N[C@@H](C)B3O[C@@H]4C[C@@H]5C[C@@H](C5(C)C)[C@]4(C)O3)cc2)cc1 [Compound 185] ({Biphenylcarbonyl(4'-Bu)}-[Dab][Dab]AS-{boroAla((+)-pinanediol)})	0.71 µg/mL (≈ 0.868 µM)	580 nM	4 µg/mL (≈ 4.89 µM)	41 nM
CCCCc1ccc(-c2ccc(C(=O)N[C@H](CCCCN)C(=O)N[C@H](C(=O)N[C@@H](C)C(=O)N[C@@H](CCCCN)C(=O)N[C@@H](C)B(O)O)C(C)O)cc2)cc1 (stereo partly drawn) [Compound 160] ({Biphenylcarbonyl(4'-Bu)}-[dK][Thr(3ξ)]AK-boroAla)	64 µg/mL (≈ 84.9 µM)	900 nM	2.8 µg/mL (≈ 3.71 µM)	2100 nM
CCCCc1ccc(-c2ccc(C(=O)N[C@@H](CCN)C(=O)N[C@@H](CCN)C(=O)N[C@@H](C)C(=O)N[C@@H](CC(C)C)C(=O)N[C@@H](C)B3O[C@@H]4C[C@@H]5C[C@@H](C5(C)C)[C@]4(C)O3)cc2)cc1 [Compound 171] ({Biphenylcarbonyl(4'-Bu)}-[Dab][Dab]AL-{boroAla((+)-pinanediol)})	0.25 µg/mL (≈ 0.296 µM)	520 nM	0.71 µg/mL (≈ 0.841 µM)	27 nM
CCCCc1ccc(-c2ccc(C(=O)NCCC(=O)N[C@@H](CCCCN)C(=O)N[C@H](C(=O)N[C@@H](C)C(=O)N[C@@H](CC(N)=O)C(=O)N[C@@H](C)B(O)O)[C@@H](C)O)cc2)cc1 [Compound 204] ({Biphenylcarbonyl(4'-Bu)-βAla}-KTAN-boroAla)	4.6 µg/mL (≈ 5.67 µM)	13 nM	0.45 µg/mL (≈ 0.555 µM)	33 nM
CCCCc1ccc(-c2ccc(C(=O)N[C@@H](CCCCN)C(=O)N3C[C@H](N)C[C@H]3C(=O)N[C@@H](C)C(=O)N[C@@H](CC(C)C)C(=O)N[C@@H](C)B(O)O)cc2)cc1 [Compound 152] ({Biphenylcarbonyl(4'-Bu)}-K[Pro(4R-NH2)]AL-boroAla)	0.5 µg/mL (≈ 0.667 µM)	350 nM	0.4 µg/mL (≈ 0.534 µM)	25 nM
CCCCc1ccc(-c2ccc(C(=O)NCCC(=O)N[C@@H](CCCCN)C(=O)N[C@H](C(=O)N[C@@H](CC)C(=O)N[C@@H](CC(N)=O)C(=O)N[C@@H](CC)B3OC4C[C@@H]5C[C@@H](C5(C)C)[C@]4(C)O3)[C@@H](C)O)cc2)cc1 (stereo partly drawn) [Compound 205] ({Biphenylcarbonyl(4'-Bu)-βAla}-KT[Abu]N-X11)	32 µg/mL (≈ 32.9 µM)	20 nM	2 µg/mL (≈ 2.06 µM)	210 nM
CCCCc1ccc(-c2ccc(C(=O)NCCC(=O)N[C@@H](CCCCN)C(=O)N[C@@H](Cc3ccc(O)cc3)C(=O)N[C@@H](C)C(=O)N[C@@H](CCCCN)C(=O)N[C@@H](C)B(O)O)cc2)cc1 [Compound 215] ({Biphenylcarbonyl(4'-Bu)-βAla}-KYAK-boroAla)	4 µg/mL (≈ 4.51 µM)	17 nM	0.5 µg/mL (≈ 0.564 µM)	77 nM
CCCCc1ccc(-c2ccc(C(=O)NCCC(=O)N[C@@H](CCCCN)C(=O)N3CCC[C@H]3C(=O)N[C@@H](C)C(=O)N[C@@H](CCCCN)C(=O)N[C@@H](C)B3OC4C[C@@H]5C[C@@H](C5(C)C)[C@]4(C)O3)cc2)cc1 (stereo partly drawn) [Compound 214] ({Biphenylcarbonyl(4'-Bu)-βAla}-KPAK-X1)	5.7 µg/mL (≈ 5.97 µM)	17 nM	0.35 µg/mL (≈ 0.366 µM)	77 nM
CCCCCCN1CCC(c2ccc(C(=O)N[C@@H](CCN)C(=O)N[C@H](C(=O)N[C@@H](C)C(=O)N[C@@H](CCCCN)C(=O)N[C@@H](C)B3O[C@@H]4C[C@@H]5C[C@@H](C5(C)C)[C@]4(C)O3)[C@@H](C)O)cc2)CC1 [Compound 246] (X15-[Dab]TAK-{boroAla((+)-pinanediol)})	64 µg/mL (≈ 71.5 µM)	290 nM	23 µg/mL (≈ 25.7 µM)	55 nM
